Measurements from patent US20040166058A1, “Ethylenedicysteine (EC)-drug conjugates, compositions and methods for tissue specific disease imaging” (Board of Regents, The University of Texas System, priority 2002, published 2004).

Experiments:
[1] = system: human lung cancer cells (A549 tumor cell line); test: Biodistribution in lung tumor-bearing nude mice; type: in vivo, athymic nude mice; conditions: for Biodistribution Blood / Biodistribution Brain / Biodistribution Heart / Biodistribution Intestine / Biodistribution Kidney / Biodistribution Liver / Biodistribution Lung / Biodistribution Muscle / Biodistribution Spleen / Biodistribution Stomach / Biodistribution Thyroid / Biodistribution Tumor / Tumor/Blood / Tumor/Lung / Tumor/Muscle: intravenously
Procedure: Female athymic nude mice (NCr-nu/nu, NCI, Bethasda, Md.) were inoculated with human lung cancer cells (A549 tumor cell line, 3×10^6 cells/mouse, intramuscular) by one author in the mid-dorsal region. After the tumor reached 6 mm, separate biodistribution studies using ^99mTc-EC-DG and 18F-FDG were conducted. Each received ^99mTc-EC-DG or 18F-FDG intravenously (n=3/time point). The injection activity was 1-3 μCi/mouse. The injected mass of ^99mTc-EC-DG was 0.2 mg/rodent.

[2] = system: 13762 tumor cell line mammary tumor; test: Gamma scintigraphic imaging in Fischer 344 rats with 13762 mammary tumor; type: in vivo; conditions: 0.5, 2 and 4 hours after i.v. injection of 300 μCi
Procedure: Female Fischer 344 rats (250-275 g each) (Harlan, Inc., Indianapolis, Ind.) were inoculated with mammary tumor cells by one author from the 13762 tumor cell line (s.c. 10^6 cells/rat, a tumor cell line specific to Fischer rats). After 8-10 days, tumor volumes of 0.3-0.6 cm were measured. Scintigraphic images were obtained 0.5, 2 and 4 hours after i.v. injection of 300 μCi of ^99mTc-EC or ^99mTc-EC-DG (n=3/agent, total 6 rats). ROI between tumor tissue and muscle (at symmetric site) was used to determine tumor/non-tumor ratios. The smallest tumor volume that could be detected by ^99mTc-EC-DG was 3 mm.

[3] = In vitro cell culture of ^99mTc-EC-DG with or without transition chelators; type: cell-based; conditions: kit formulation
Description: It may also be important to include an antioxidant and a transition chelator in the composition to prevent oxidation of the ethylenedicysteine. For example, the antioxidant may be vitamin C (ascorbic acid). However, other antioxidants known to those of ordinary skill in the art, such as tocopherol, pyridoxine, thiamine, or rutin, may also be used. Any transition chelator known to those of ordinary skill in the art may be used in conjunction with the present invention. Examples of transition chelators include glucoheptonate, gluconate, glucarate, citrate, and tartarate.

O=C(NC1C(O)OC(CO)C(O)C1O)C1C[S][99Tc]23(=[O])[S]CC(C(=O)NC4C(O)OC(CO)C(O)C4O)[N]2CC[N]13 (stereo not drawn) [^99mTc-EC-DG]
Biodistribution Blood ([1]; 30 min): 1.607 ± 0.389 % of injected dose per gram of tissue weight
Biodistribution Brain ([1]; 30 min): 0.058 ± 0.008 % of injected dose per gram of tissue weight
Biodistribution Heart ([1]; 30 min): 0.611 ± 0.193 % of injected dose per gram of tissue weight
Biodistribution Intestine ([1]; 30 min): 0.510 ± 0.093 % of injected dose per gram of tissue weight
Biodistribution Kidney ([1]; 30 min): 6.726 ± 1.842 % of injected dose per gram of tissue weight
Biodistribution Liver ([1]; 30 min): 5.674 ± 2.089 % of injected dose per gram of tissue weight
Biodistribution Lung ([1]; 30 min): 1.048 ± 0.259 % of injected dose per gram of tissue weight
Biodistribution Muscle ([1]; 30 min): 0.264 ± 0.072 % of injected dose per gram of tissue weight
Biodistribution Spleen ([1]; 30 min): 3.240 ± 1.709 % of injected dose per gram of tissue weight
Biodistribution Stomach ([1]; 30 min): 0.540 ± 0.113 % of injected dose per gram of tissue weight
Biodistribution Thyroid ([1]; 30 min): 0.929 ± 0.212 % of injected dose per gram of tissue weight
Biodistribution Tumor ([1]; 30 min): 0.787 ± 0.163 % of injected dose per gram of tissue weight
Tumor/Blood ([1]; 30 min): 0.499 ± 0.022
Tumor/Lung ([1]; 30 min): 0.769 ± 0.047
Tumor/Muscle ([1]; 30 min): 3.352 ± 0.749
Biodistribution Blood ([1]; 2 h): 0.977 ± 0.267 % of injected dose per gram of tissue weight
Biodistribution Brain ([1]; 2 h): 0.042 ± 0.006 % of injected dose per gram of tissue weight
Biodistribution Heart ([1]; 2 h): 0.336 ± 0.080 % of injected dose per gram of tissue weight
Biodistribution Intestine ([1]; 2 h): 0.417 ± 0.110 % of injected dose per gram of tissue weight
Biodistribution Kidney ([1]; 2 h): 5.687 ± 1.540 % of injected dose per gram of tissue weight
Biodistribution Liver ([1]; 2 h): 5.807 ± 1.708 % of injected dose per gram of tissue weight
Biodistribution Lung ([1]; 2 h): 0.721 ± 0.210 % of injected dose per gram of tissue weight
Biodistribution Muscle ([1]; 2 h): 0.148 ± 0.039 % of injected dose per gram of tissue weight
Biodistribution Spleen ([1]; 2 h): 4.205 ± 1.374 % of injected dose per gram of tissue weight
Biodistribution Stomach ([1]; 2 h): 0.439 ± 0.138 % of injected dose per gram of tissue weight
Biodistribution Thyroid ([1]; 2 h): 0.665 ± 0.207 % of injected dose per gram of tissue weight
Biodistribution Tumor ([1]; 2 h): 0.415 ± 0.123 % of injected dose per gram of tissue weight
Tumor/Blood ([1]; 2 h): 0.424 ± 0.022
Tumor/Lung ([1]; 2 h): 0.587 ± 0.046
Tumor/Muscle ([1]; 2 h): 2.754 ± 0.120
Biodistribution Blood ([1]; 4 h): 0.787 ± 0.152 % of injected dose per gram of tissue weight
Biodistribution Brain ([1]; 4 h): 0.042 ± 0.006 % of injected dose per gram of tissue weight
Biodistribution Heart ([1]; 4 h): 0.318 ± 0.071 % of injected dose per gram of tissue weight
Biodistribution Intestine ([1]; 4 h): 0.374 ± 0.073 % of injected dose per gram of tissue weight
Biodistribution Kidney ([1]; 4 h): 4.318 ± 0.890 % of injected dose per gram of tissue weight
Biodistribution Liver ([1]; 4 h): 6.656 ± 1.786 % of injected dose per gram of tissue weight
Biodistribution Lung ([1]; 4 h): 0.606 ± 0.128 % of injected dose per gram of tissue weight
Biodistribution Muscle ([1]; 4 h): 0.147 ± 0.022 % of injected dose per gram of tissue weight
Biodistribution Spleen ([1]; 4 h): 5.933 ± 3.194 % of injected dose per gram of tissue weight
Biodistribution Stomach ([1]; 4 h): 0.541 ± 0.119 % of injected dose per gram of tissue weight
Biodistribution Thyroid ([1]; 4 h): 0.692 ± 0.119 % of injected dose per gram of tissue weight
Biodistribution Tumor ([1]; 4 h): 0.414 ± 0.161 % of injected dose per gram of tissue weight
Tumor/Blood ([1]; 4 h): 0.502 ± 0.120
Tumor/Lung ([1]; 4 h): 0.640 ± 0.120
Tumor/Muscle ([1]; 4 h): 2.795 ± 0.982
tumor/muscle and tumor/brain ratios, ^99mTc-EC-DG versus 18F-FDG ([1]; as a function of time): higher tumor/muscle and tumor/brain ratios
organs visualized [2]: Heart, kidneys, liver, and bladder were visualized
stability with or without transition chelators (gluconate and glucarate) [3]: does not interfere with the stability
